Assay results published in patent US20150072020A1, “Dexanabinol or a Derivative Thereof for Use in the Treatment of Cancer in Dose Ranges of 2-30 mg/kg” (E-THERAPEUTICS PLC, priority 2012, published 2015).

Columns and labels:
[1] = molecular target: CDK5 (Homo sapiens, UniProt Q00535); test: direct assay of dexanabinol against CDK5; type: biochemical; conditions: when directly assayed; heading names CDK5/p25
Source text: (§1) However, we believe that CDKs are affected indirectly, in circumstances where more of the intracellular network that might mediate such effects remains present.

[2] = molecular target: CDK2 (Homo sapiens, UniProt P24941); test: direct assay of dexanabinol against CDK2; type: biochemical; conditions: when directly assayed; heading names CDK2/A
Source text: as §1

Sequence of CDK5 (Q00535 whole entry, species assumed): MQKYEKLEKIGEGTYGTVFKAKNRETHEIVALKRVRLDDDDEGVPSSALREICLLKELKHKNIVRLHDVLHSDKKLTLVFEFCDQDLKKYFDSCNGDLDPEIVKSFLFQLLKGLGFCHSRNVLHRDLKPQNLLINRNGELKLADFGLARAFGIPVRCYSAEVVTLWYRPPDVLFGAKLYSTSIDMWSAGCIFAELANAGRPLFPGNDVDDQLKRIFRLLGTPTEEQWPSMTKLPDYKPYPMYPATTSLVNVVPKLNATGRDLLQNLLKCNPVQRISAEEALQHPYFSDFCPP
Sequence of CDK5 (Q15078 99-307 partner limits assumed, species assumed): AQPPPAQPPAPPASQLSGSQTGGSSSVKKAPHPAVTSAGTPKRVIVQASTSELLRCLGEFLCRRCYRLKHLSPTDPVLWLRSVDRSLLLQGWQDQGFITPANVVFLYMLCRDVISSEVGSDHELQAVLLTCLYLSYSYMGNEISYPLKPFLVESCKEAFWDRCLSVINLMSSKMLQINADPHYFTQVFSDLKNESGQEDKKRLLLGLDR

For `CCCCCCC(C)(C)c1cc(O)c2c(c1)OC(C)(C)[C@H]1CC=C(CO)C[C@H]21` [Dexanabinol, 1, 1 dimethyl heptyl-(3S, 4S)-7-hydroxy-Δ^6-tetrahydrocannabinol], the “direct activity against CDK5” value [1] was “no significant direct activity” and the “direct activity against CDK2” value [2] was “no significant direct activity”.
